Test results reported in the Deep4Chem optical property database.
Where “and” joins values, the source holds several entries; their conditions need not be identical. Equal values may be shown once.

Assay: solvent given as SMILES

## CC(C)(C)c1ccc2c(c1)c1cc(C(C)(C)C)ccc1n2-c1ccc(C#Cc2ccc3c4ccc(C#Cc5ccc(C=C(C#N)C#N)cc5)cc4n(-c4ccc(C(F)(F)F)cc4)c3c2)cc1
In ClCCl
  emission maximum: 454 nm

## COc1ccc(-c2ccc(-c3ccc(F)cc3)cc2)cc1
In C1COCCO1
  emission maximum: 352 nm

## O=C1c2cc3ccccc3cc2C2=Nc3ccc4ccccc4[n+]3[B-](F)(F)N12
In ClCCl
  emission maximum: 430 nm

## CCCCOc1ccc(-c2cc(-c3ccc(OCCCC)cc3)c3ccc4c(-c5ccc(OCCCC)cc5)cc(-c5ccc(OCCCC)cc5)c5ccc2c3c54)cc1
In ClC(Cl)Cl
  emission maximum: 433 nm

## COC(=O)C[C@H](Cc1c[nH]c2ccccc12)NC(=O)[C@H](CC(=O)N[C@@H](CC1=CCc2ccccc21)C(=O)OC)NC(=O)OC(C)(C)C
In CC#N
  emission maximum: 332 nm
In CCOC(C)=O
  emission maximum: 326 nm
In CO
  emission maximum: 337 nm

## CCCN1c2ccccc2Sc2cc(/C=C\c3cc(=O)oc4cc(NC(=O)OCC)ccc34)ccc21
In ClC(Cl)Cl
  emission maximum: 635 nm

## C1=C(c2ccccc2)C2=Nc3c(-c4ccccc4)cc4n3[B-]3(Oc5ccccc5C1=[N+]23)Oc1ccccc1-4 (configuration not stated)
In Cc1ccccc1
  emission maximum: 746 nm

## Cc1cc(C)c(B2c3cc(C(C)(C)C)ccc3-c3cccc4cc(C(C)(C)C)cc2c34)c(C)c1
In C1CCCCC1
  emission maximum: 431 nm

## COc1cc2c(cc1F)c(=O)c1cc(F)c(OC)cc1n2C(C)C
In CCO
  emission maximum: 425 nm

## C[Si](C)(C)c1ccc(-c2ccc(-c3ccc(-c4ccc(-c5ccc([Si](C)(C)C)s5)cc4)c4nsnc34)cc2)s1
In C1CCOC1
  emission maximum: 540 nm

## CN(C)c1ccc2nc3c(cc2c1)c(-c1ccccc1)nn3-c1ccccc1
In C1CCCCC1
  emission maximum: 444.44 nm
In C1CCOC1
  emission maximum: 534.19 nm
In CC#N
  emission maximum: 561.48 nm
In CC(C)=O
  emission maximum: 552.79 nm
In CCCCCl
  emission maximum: 516 nm
In CCCCOCCCC
  emission maximum: 498.75 nm
In CN(C)C=O
  emission maximum: 566.89 nm

## CCc1c(C)[nH]c(C2=[N+]3C(=C(C)c4c(C)c(CC)c(C)n4[B-]3(F)F)c3ccccc32)c1C
In C1CCOC1
  emission maximum: 656 nm
In CC#N
  emission maximum: 652 nm
In CCCCCC
  emission maximum: 636 nm
In CO
  emission maximum: 650 nm
In Cc1ccccc1
  emission maximum: 646 nm
In ClCCl
  emission maximum: 645 nm

## COc1ccc(-c2cc3c(s2)c(C(C)=O)cc(=O)n3Cc2ccccc2)cc1
In CC#N
  emission maximum: 515 nm
In ClCCl
  emission maximum: 512 nm

## O=C1O[B-]2(OC1=O)OC(c1ccccc1)=CC(c1ccc3ccccc3c1)=[O+]2
In CC#N
  emission maximum: 555 nm
In ClC(Cl)(Cl)Cl
  emission maximum: 451 nm

## CC(C)(C)NC(=O)c1ccc(C(=O)NC(C)(C)C)c2c1c1c3ccccc3c3ccccc3c1c1c3ccccc3c3ccccc3c21
In ClCCl
  emission maximum: 476 nm

## C1=Cc2ccccc2C(=Cc2ccc(-c3cc(-c4ccc(C=C5c6ccccc6C=Cc6ccccc65)cc4)cc(-c4ccc(C=C5c6ccccc6C=Cc6ccccc65)cc4)c3)cc2)c2ccccc21
In C1CCOC1
  emission maximum: 405 nm

## Cc1ccc(C2=C(c3ccc(C)cc3)c3cccc4c3c(cc3nc5ccccc5nc34)O2)cc1
In ClCCl
  emission maximum: 559 nm

## CC1(C)c2cc(/C=C/c3nc(/C=C/c4ccc5c(c4)C(C)(C)c4cc(N(c6ccccc6)c6ccc7ccccc7c6)ccc4-5)nc(/C=C/c4ccc5c(c4)C(C)(C)c4cc(N(c6ccccc6)c6ccc7ccccc7c6)ccc4-5)n3)ccc2-c2ccc(N(c3ccccc3)c3ccc4ccccc4c3)cc21
In C1CCOC1
  emission maximum: 440 nm

## CC(C)(C)c1ccc(-c2ccc(-c3c4c(nc5ccccc35)-c3cc5c(cc3CC4)-c3nc4ccccc4c(-c4ccc(-c6ccc(C(C)(C)C)cc6)cc4)c3CC5)cc2)cc1
In ClC(Cl)Cl
  emission maximum: 388 nm

## N#Cc1nn(-c2ccccc2)nc1N1CCCC1
In CC#N
  emission maximum: 423 nm

## Fc1cccc(F)c1[B-]1(c2c(F)cccc2F)Oc2c(ccc3c4c(ccc23)C=[N+](c2ccccc2)[B-](c2c(F)cccc2F)(c2c(F)cccc2F)O4)C=[N+]1c1ccccc1
In Cc1ccccc1
  emission maximum: 592 nm
In ClCCl
  emission maximum: 585 nm

## C(/C=C/Nc1ccccc1)=[NH+]c1ccccc1
In CS(C)=O
  emission maximum: 492 nm

## COc1ccc(N(c2ccc(OC)cc2)c2ccc(-c3ccc(-c4ccc5nc6ccccc6c(=O)n5c4)cc3)cc2)cc1
In ClCCl
  emission maximum: 557 nm

## CCOC(=O)c1c(C=Cc2ccccc2)oc(NC2CCCCC2)c1C(=O)OCC
In CC#N
  emission maximum: 460 nm

## CN(C)c1ccc(-c2nc3cccnc3[nH]2)cc1
In C1CCCCC1
  emission maximum: 359 nm
In CC#N
  emission maximum: 408 nm

## O=C1c2ccc(N(c3ccc(-c4ccccc4)cc3)c3ccc(-c4ccccc4)cc3)cc2C(=O)c2ccc(N(c3ccc(-c4ccccc4)cc3)c3ccc(-c4ccccc4)cc3)cc21
In Cc1ccccc1
  emission maximum: 629 nm
In c1ccc2c(c1)c1ccccc1n2-c1ccc(-c2ccc(-n3c4ccccc4c4ccccc43)cc2)cc1
  emission maximum: 603 nm

## CC(C)(C)NC(=O)c1ccc(Br)c2ccc3c4ccc(F)cc4c4cc(F)ccc4c3c12
In ClCCl
  emission maximum: 394 nm

## Cc1cc2c3ccccc3n(C)c2c2c1c1ccccc1n2C
In ClCCl
  emission maximum: 391 nm

## CC1(C)CC(=O)c2c(F)c(F)c(F)c(F)c2N1
In CC#N
  emission maximum: 449 nm
In CCO
  emission maximum: 479 nm

## F[Si-](F)(c1c2ccccc2cc2ccccc12)(c1c2ccccc2cc2ccccc12)c1c2ccccc2cc2ccccc12
In C1CCOC1
  emission maximum: 396 nm

## CN(C)c1ccc(C#Cc2nc(-c3ccccc3)nc3ccccc23)cc1
In C1CCCCC1
  emission maximum: 423 nm
In C1CCOC1
  emission maximum: 549 nm
In CC#N
  emission maximum: 570 nm
In CS(C)=O
  emission maximum: 584 nm
In ClCCl
  emission maximum: 551 nm

## COc1ccc(-c2nc(-c3cccc(C#N)c3)[nH]c2-c2ccc(OC)cc2)cc1
In CO
  emission maximum: 478 nm

## N#Cc1c(N2CCCC2)cc(-c2ccccc2)c2c1-c1ccccc1C2=O
In C1CCOC1
  emission maximum: 527 nm

## CCCCCCN1C(=O)c2cccc3c(-c4ccc(-c5cc(-c6cccc7ccccc67)nn5-c5ccccc5)s4)ccc(c23)C1=O
In ClCCl
  emission maximum: 515 nm

## CC(C)(C)c1ccc2c(c1)c1cc(C(C)(C)C)ccc1n2-c1ccc(S(=O)(=O)c2cccc(S(=O)(=O)c3ccc(-n4c5ccc(C(C)(C)C)cc5c5cc(C(C)(C)C)ccc54)cc3)c2)cc1
In Cc1ccccc1
  emission maximum: 422 nm

## F[B-]1(F)N2C(=Nc3cccc4cccc2c34)c2cccc[n+]21
In CC#N
  emission maximum: 413 nm
In CO
  emission maximum: 383 nm
In CS(C)=O
  emission maximum: 498 nm
In Cc1ccccc1
  emission maximum: 384 nm

## O=C1[C@@H]2[C@H](C(=O)N1c1ccc3cc4ccccc4cc3c1)[C@@H]1C=C[C@H]2C1
In ClC(Cl)Cl
  emission maximum: 386 nm

## COc1ccc(C2=[N+]3C(=Nc4c(-c5ccccc5)c(Br)c(-c5ccc(OC)cc5)n4[B-]3(F)F)C(c3ccccc3)=C2Br)cc1
In ClC(Cl)Cl
  emission maximum: 714 nm
In ClCCl
  emission maximum: 714 nm

## CC(C)c1cc(N(C)C)c(C#N)c2c1-c1cccc3cccc-2c13
In O
  emission maximum: 554 nm

## CCCCCCc1ccc(-n2c3[n+](c4c5ccccc5c5ccccc5c42)[B-](C)(C)c2ccc4ccccc4c2-3)cc1
In C1CCOC1
  emission maximum: 444 nm
In CC#N
  emission maximum: 443 nm
In Cc1ccccc1
  emission maximum: 444 nm
In ClCCl
  emission maximum: 435 nm

## Cc1cc(C)c(B(c2cc3ccc4cccc5ccc(c2)c3c45)c2c(C)cc(C)cc2C)c(C)c1
In Cc1ccccc1
  emission maximum: 434 nm

## CC(NC(=O)OC(C)(C)C)C(=O)OCc1ccc2c3cccc4cccc(c5cccc1c52)c43 (configuration not stated)
In CCO
  emission maximum: 443 nm

## CCC1=C(C)C2=C(/C=C/c3ccc([N+](=O)[O-])cc3)c3c(C)c(CC)c(C)n3[B-](F)(F)[N+]2=C1C
In ClCCl
  emission maximum: 532 nm

## Cc1cc(C)c(B2c3cc(C(C)(C)C)ccc3-c3cc4ccccc4c4cc(C(C)(C)C)cc2c34)c(C)c1
In C1CCCCC1
  emission maximum: 420 nm

## COc1ccc(C(=O)OCc2ccc3c4cccc5cccc(c6cccc2c63)c54)cc1
In CCO
  emission maximum: 447 nm

## CCCCCCc1ccc2c3c(ccc2c1)O[B-](F)(F)[N+](c1cc([N+]2=Cc4c(ccc5cc(CCCCCC)ccc45)O[B-]2(F)F)cc([N+]2=Cc4c(ccc5cc(CCCCCC)ccc45)O[B-]2(F)F)c1)=C3
In C1CCOC1
  emission maximum: 490 nm
In CC#N
  emission maximum: 495 nm
In Cc1ccccc1
  emission maximum: 493 nm
In ClCCl
  emission maximum: 495 nm

## c1cnc(-c2c3ccccc3c(-c3ncccn3)c3ccccc23)nc1
In CCO
  emission maximum: 440 nm
In ClCCl
  emission maximum: 439 nm

## CCCCCCc1ccsc1-c1ccc(-c2sc(C(=O)O)cc2CCCCCC)s1
In CC(C)=O
  emission maximum: 468 nm
In CCCCCC
  emission maximum: 458 nm
In CCO
  emission maximum: 451 nm
In CO
  emission maximum: 451 nm
In ClCCl
  emission maximum: 479 nm
In O
  emission maximum: 490 nm

## COc1ccc(-c2c3ccc([nH]3)c3nc(c(-c4ccc(C#N)cc4)c4ccc([nH]4)c4ccc([nH]4)c(-c4ccc(OC)cc4)c4ccc2o4)C=C3)cc1
In C1CCOC1
  emission maximum: 736 nm
In Cc1ccccc1
  emission maximum: 724 nm
In c1ccccc1
  emission maximum: 724 nm

## C[Si](C)(C)c1ccc(-c2ccc(-c3ccc(-c4ccc(-c5ccc([Si](C)(C)C)s5)s4)c4nsnc34)s2)s1
In C1CCOC1
  emission maximum: 656 nm

## CCCCCCCCOc1ccc(-c2c3c4n(c(-c5ccc(OCCCCCCCC)cc5)c3c3n2[B-](F)(F)[n+]2c(ccc5ccccc52)N=3)[B-](F)(F)[n+]2c(ccc3ccccc32)N=4)cc1
In ClC(Cl)Cl
  emission maximum: 682 nm

## Oc1ccccc1/C=N/c1ccccc1/N=C/c1ccccc1O
In CC#N
  emission maximum: 545 nm and 458 nm

## CCCC1=Cc2nc1ccc1[nH]c(cc1CCC)c1nc(c(NC(=O)CCCC(=O)OC)cc3[nH]c2cc3CCC)C(CCC)=C1
In Cc1ccccc1
  emission maximum: 680 nm

## CCCC1(CCC)c2cc(-c3cccc(C)c3)ccc2-c2ccc(-c3cccc(C)c3)cc21
In C1CCCCC1
  emission maximum: 363 nm

## c1ccc(-c2cc(-c3ccc4c(c3)C3(c5ccccc5-c5ccccc53)c3cc(-c5cc(-c6ccccn6)nc(-c6ccccn6)c5)ccc3-4)cc(-c3ccccn3)n2)nc1
In ClC(Cl)Cl
  emission maximum: 395 nm

## Nc1ncnc2c1c(-c1ccc3ccccc3c1)nn2[C@H]1C[C@H](O)[C@@H](CO)O1
In C1COCCO1
  emission maximum: 359 nm
In CC#N
  emission maximum: 360 nm
In CC(C)O
  emission maximum: 363 nm
In CCO
  emission maximum: 364 nm
In CCOC(C)=O
  emission maximum: 358 nm
In CN(C)C=O
  emission maximum: 361 nm
In CO
  emission maximum: 362 nm
In CS(C)=O
  emission maximum: 363 nm
In OCC(O)CO
  emission maximum: 372 nm
In OCCO
  emission maximum: 365 nm

## COc1ccc(-c2cc3c(o2)=CC2=C(C(F)(F)F)c4cc5oc(-c6ccc(OC)cc6)cc5n4[B-](F)(F)[N+]=32)cc1
In ClC(Cl)Cl
  emission maximum: 738 nm
